According to paper PMC9316523, “Design, Synthesis and Molecular Docking of Novel Acetophenone-1,2,3-Triazoles Containing Compounds as Potent Enoyl-Acyl Carrier Protein Reductase (InhA) Inhibitors” (Pharmaceuticals, 2022):
pIC50: −log10 of the molar value. In brackets after ≈: the same amount, converted by molar mass. Where two headings read alike, the source gives them in different places.

How the values were obtained:
[1] = target: T1, M. tuberculosis InhA (Mycobacterium tuberculosis, UniProt P9WGR1); assay: InhA enzymatic inhibition assay (NADH oxidation at 340 nm); assay type: biochemical
T1 construct: made in house; host or cells: E. coli

[2] = system: Mycobacterium tuberculosis; conditions: cited from earlier work
[3] = target: enoyl-acyl carrier protein reductase InhA enzyme; design: method as in PMID 32987135; conditions: cited from earlier work
[4] = 70 nM InhA, 2 h pre-incubation, 25 °C, pH 6.8, read-out: InhA inhibition IC50

T1 sequence (P9WGR1 whole entry, looked up): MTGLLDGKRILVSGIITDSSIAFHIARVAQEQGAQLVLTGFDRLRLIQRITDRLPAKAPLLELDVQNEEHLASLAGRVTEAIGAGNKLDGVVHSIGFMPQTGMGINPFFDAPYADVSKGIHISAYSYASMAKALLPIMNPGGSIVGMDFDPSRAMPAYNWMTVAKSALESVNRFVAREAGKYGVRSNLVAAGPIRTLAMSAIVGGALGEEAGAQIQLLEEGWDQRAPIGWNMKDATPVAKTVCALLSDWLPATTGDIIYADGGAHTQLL

Structure (SMILES)	pIC50 [1, 4]	inhibition at 10 µM [1]	MIC [2]	melting point	pIC50 [3]	pIC50 [1]
CO[C@H]1/C=C/O[C@@]2(C)Oc3c(C)c(O)c4c(O)c(c(/C=N/N5CCN(C)CC5)c(O)c4c3C2=O)NC(=O)/C(C)=C\C=C\[C@H](C)[C@H](O)[C@@H](C)[C@@H](O)[C@@H](C)[C@H](OC(C)=O)[C@@H]1C [Rifampicin, reference compound]	5.07	58.8%				
COc1ccccc1NC(=O)Cn1cc(COc2ccc3c(c2)CCC3)nn1 [Lead structure C]			6.25 µg/mL (≈ 16.5 µM)			
CC(=O)c1ccc(OCc2cn(CC(=O)NCc3ccc(F)cc3)nn2)cc1 [Compound 12, 2-(4-((4-Acetylphenoxy)methyl)-1H-1,2,3-triazol-1-Yl)-N-(4-fluorobenzyl)acetamide]	7.39	100%		165 to 166 °C		
CC[C@H](CO)C(=O)c1ccc(OCc2ccccc2)cc1O [Lead structure B]					6.42	
CC(=O)c1ccc(OCc2cn(CC(=O)Nc3ccccc3F)nn2)cc1 [Compound 9, 2-(4-((4-Acetylphenoxy)methyl)-1H-1,2,3-triazol-1-Yl)-N-(2-fluorophenyl)acetamide]		100%		179 to 180 °C		8.30
O=C(Cn1cc(-c2ccccc2)nn1)Nc1ccccc1 [Lead structure D]			0.08 µg/mL (≈ 0.287 µM)			
CC(=O)c1ccc(OCc2cn(CC(=O)Nc3ccc([N+](=O)[O-])cc3)nn2)cc1 [Compound 10, 2-(4-((4-Acetylphenoxy)methyl)-1H-1,2,3-triazol-1-Yl)-N-(4-nitrophenyl)acetamide]		100%		185 to 186 °C		8.10
CC(=O)c1ccc(OCc2cn(CC(=O)Nc3ccc(Cl)c(Cl)c3)nn2)cc1 [Compound 11, 2-(4-((4-Acetylphenoxy)methyl)-1H-1,2,3-triazol-1-Yl)-N-(3,4-dichlorophenyl)acetamide]	7.37	100%		205 to 206 °C		
COc1ccc(CNC(=O)Cn2cc(COc3ccc(C(C)=O)cc3)nn2)cc1 [Compound 14, 2-(4-((4-Acetylphenoxy)methyl)-1H-1,2,3-triazol-1-Yl)-N-(4-methoxybenzyl)acetamide]		100%		125 to 126 °C		8.70
CC(=O)c1ccc(OCc2cn(CC(=O)NCc3ccc(C)cc3)nn2)cc1 [Compound 13, 2-(4-((4-Acetylphenoxy)methyl)-1H-1,2,3-triazol-1-Yl)-N-(4-methylbenzyl)acetamide]	7.08	100%		180 to 182 °C		
Clc1ccc(OCc2cn(Cc3ccc(Br)cc3)nn2)cc1 [Lead structure A]			5.8 µg/mL (≈ 15.3 µM)			
